Source: the NIST ThermoML archive (doi:10.1021/je0301040)
Numbers after ± are expanded uncertainties.

Experiment: xn = mol fraction of the nth substance listed
Settings: Liquid

FC(Cl)(Cl)Cl [trichlorofluoromethane] + FC(F)Cl
Settings	mass density [kg/m3]
230 K, 25860 kPa, Pycnometric method, x1 = 0.8336	1641.63 ± 1.8
230.01 K, 668.5 kPa, Pycnometric method, x1 = 0.8336	1604.47 ± 2
230.01 K, 1004 kPa, Pycnometric method, x1 = 0.8336	1605.02 ± 2
230.01 K, 2033.3 kPa, Pycnometric method, x1 = 0.8336	1606.97 ± 2
230.01 K, 2374.4 kPa, Pycnometric method, x1 = 0.8336	1607.47 ± 2
230.01 K, 2689.9 kPa, Pycnometric method, x1 = 0.8336	1608.01 ± 2
230.01 K, 3067 kPa, Pycnometric method, x1 = 0.8336	1608.63 ± 2
230.01 K, 3637.3 kPa, Pycnometric method, x1 = 0.8336	1609.58 ± 2
230.01 K, 12707 kPa, Pycnometric method, x1 = 0.8336	1623.4 ± 1.9
230.01 K, 65252 kPa, Pycnometric method, x1 = 0.8336	1686.03 ± 1.7
230.02 K, 1691.3 kPa, Pycnometric method, x1 = 0.8336	1606.39 ± 2
230.02 K, 38513 kPa, Pycnometric method, x1 = 0.8336	1657.76 ± 1.8
230.02 K, 51629 kPa, Pycnometric method, x1 = 0.8336	1672.95 ± 1.8
232.01 K, 344.5 kPa, isochoric method, x1 = 0.832	1585.93 ± 0.49
232.01 K, 367.9 kPa, isochoric method, x1 = 0.832	1585.93 ± 0.49
233.01 K, 1630.1 kPa, isochoric method, x1 = 0.832	1585.8 ± 0.49
234.01 K, 2889.9 kPa, isochoric method, x1 = 0.832	1585.67 ± 0.49
245.01 K, 363.7 kPa, isochoric method, x1 = 0.832	1556.16 ± 0.48
246.5 K, 2106.6 kPa, isochoric method, x1 = 0.832	1555.98 ± 0.48
248 K, 3843.5 kPa, isochoric method, x1 = 0.832	1555.8 ± 0.48
248 K, 3865.5 kPa, isochoric method, x1 = 0.832	1555.8 ± 0.48
248.01 K, 3870.3 kPa, isochoric method, x1 = 0.832	1555.8 ± 0.48
249 K, 4990.8 kPa, isochoric method, x1 = 0.832	1555.68 ± 0.48
264.5 K, 1262.1 kPa, isochoric method, x1 = 0.832	1513.38 ± 0.46
266.5 K, 3302.5 kPa, isochoric method, x1 = 0.832	1513.15 ± 0.47
268 K, 4830.1 kPa, isochoric method, x1 = 0.832	1512.98 ± 0.47
268 K, 4846.4 kPa, isochoric method, x1 = 0.832	1512.98 ± 0.47
269.99 K, 2096.8 kPa, Pycnometric method, x1 = 0.8336	1502.82 ± 1.9
269.99 K, 21561 kPa, Pycnometric method, x1 = 0.8336	1541.21 ± 1.4
269.99 K, 41933 kPa, Pycnometric method, x1 = 0.8336	1573.88 ± 1.3
270 K, 378 kPa, Pycnometric method, x1 = 0.8336	1498.95 ± 1.9
270 K, 696 kPa, Pycnometric method, x1 = 0.8336	1499.67 ± 1.9
270 K, 1081 kPa, Pycnometric method, x1 = 0.8336	1500.54 ± 1.9
270 K, 1383.8 kPa, Pycnometric method, x1 = 0.8336	1501.23 ± 1.9
270 K, 1742 kPa, Pycnometric method, x1 = 0.8336	1502.02 ± 1.9
270 K, 2410 kPa, Pycnometric method, x1 = 0.8336	1503.54 ± 1.9
270 K, 2708.1 kPa, Pycnometric method, x1 = 0.8336	1504.16 ± 1.9
270 K, 3130 kPa, Pycnometric method, x1 = 0.8336	1505.05 ± 1.9
270 K, 3854.5 kPa, Pycnometric method, x1 = 0.8336	1506.62 ± 1.9
270 K, 7625.3 kPa, Pycnometric method, x1 = 0.8336	1514.59 ± 1.6
270 K, 14726 kPa, Pycnometric method, x1 = 0.8336	1528.68 ± 1.8
270 K, 27467 kPa, Pycnometric method, x1 = 0.8336	1551.32 ± 1.7
270 K, 35271 kPa, Pycnometric method, x1 = 0.8336	1563.81 ± 1.4
270 K, 48894 kPa, Pycnometric method, x1 = 0.8336	1583.8 ± 1.3
270 K, 55535 kPa, Pycnometric method, x1 = 0.8336	1592.86 ± 1.3
270 K, 62211 kPa, Pycnometric method, x1 = 0.8336	1601.52 ± 1.3
288 K, 932.5 kPa, isochoric method, x1 = 0.832	1464.29 ± 0.45
290 K, 2670 kPa, isochoric method, x1 = 0.832	1464.09 ± 0.45
293 K, 5258.3 kPa, isochoric method, x1 = 0.832	1463.78 ± 0.46
293 K, 5259.5 kPa, isochoric method, x1 = 0.832	1463.78 ± 0.46
298.14 K, 1069.1 kPa, Pycnometric method, x1 = 0.8336	1439.09 ± 1.8
298.14 K, 1772.4 kPa, Pycnometric method, x1 = 0.8336	1441.18 ± 1.8
298.14 K, 2113.1 kPa, Pycnometric method, x1 = 0.8336	1442.22 ± 1.8
298.14 K, 2728.2 kPa, Pycnometric method, x1 = 0.8336	1444.75 ± 1.8
298.14 K, 3032.4 kPa, Pycnometric method, x1 = 0.8336	1445.59 ± 1.8
298.14 K, 21180 kPa, Pycnometric method, x1 = 0.8336	1490.62 ± 1.6
298.14 K, 49069 kPa, Pycnometric method, x1 = 0.8336	1542.62 ± 1.4
298.14 K, 63135 kPa, Pycnometric method, x1 = 0.8336	1564.13 ± 1.4
298.15 K, 390.2 kPa, Pycnometric method, x1 = 0.8336	1436.97 ± 1.8
298.15 K, 717.7 kPa, Pycnometric method, x1 = 0.8336	1438.05 ± 1.8
298.15 K, 1383.5 kPa, Pycnometric method, x1 = 0.8336	1440.04 ± 1.8
298.15 K, 2381.3 kPa, Pycnometric method, x1 = 0.8336	1443.01 ± 1.8
298.15 K, 2409.4 kPa, Pycnometric method, x1 = 0.8336	1443.8 ± 1.8
298.15 K, 3541.1 kPa, Pycnometric method, x1 = 0.8336	1447.03 ± 1.8
298.15 K, 7060.4 kPa, Pycnometric method, x1 = 0.8336	1456.68 ± 1.7
298.15 K, 14256 kPa, Pycnometric method, x1 = 0.8336	1474.84 ± 1.6
